Results on 23 compounds are retold here after patent publication US7575909B2, “Oxidoreductase from pichia capsulata” (IEP GmbH, priority 2003, dated 2009).

The subject of the first test is oxidoreductase according to the invention. As to the kind of experiment: Enantiomeric excess of the alcohol formed from selected substrates (GC). The following applies: R-alcohol in excess; 24 h. In kind it is biochemical, Pichia capsulata. As to the method:
For the determination of the ee-value, the following reaction batch was used for selected substrates.
The batches for ee-determination were extracted with chloroform after 24 h and the enantiomeric excess of the resulting alcohol was determined via GC.
Regarding `CCOC(=O)C(=O)c1ccccc1` [Ethyl phenyl glyoxylate], the Stereoselectivity is on record as 100% R.
`O=C(CCl)c1cccc(Cl)c1` [2-Chloro-1-(3-chlorophenyl)ethane-1-one] yielded a Stereoselectivity of 100% R.
Same read-out and setting: the same measure for `CCOC(=O)CC(=O)CCl` [Ethyl-4-chloroacetoacetate]: 99% R; for `CCOC(=O)CCCCC(=O)CCCl` [Ethyl-8-chloro-6-oxooctanoic acid]: 100% R.

The test is the same for the next values; noted with them: S-alcohol in excess; 24 h.
On to `CCOC(=O)C(=O)CCc1ccccc1` [Ethyl-2-oxo-4-phenylbutanoic acid], for which the Stereoselectivity was 95% S.
On the same count and under the same terms, then `CCOC(=O)CC(C)=O` [Ethyl acetoacetate], with 99% S; and `COC(=O)CC(C)=O` [Methyl acetoacetate], with 97% S; and `CCOC(=O)C(C)=O` [Ethyl pyruvate], with 100% S.
As for `CC(=O)Cc1ccccc1` [1-Phenyl-2-propanone], the Stereoselectivity is 97% S.
`CCC(C)=O` [2-Butanone] had a Stereoselectivity of 50% S.
`CCCCCCC(C)=O` [2-Octanone] returned a Stereoselectivity of 100% S.
In the case of `CC(=O)CCO` [4-Hydroxy-2-butanone], the Stereoselectivity is 90% S.
Regarding `CCCC(=O)C(=O)OCC` [Ethyl-2-oxovaleriate], the Stereoselectivity amounted to 97% S.

For a further test, the system named is recombinant oxidoreductase from Pichia capsulata. As to the kind of experiment: Preparative conversions with recombinant oxidoreductase. In kind it is biochemical. The following applies: after 24 h at room temperature, isopropanol as cosubstrate, NAD. The procedure: For the preparative batch, a mixture of […] of a buffer (100 mM TEA, pH=7, 1 mM ZnCl2, 10% glycerol), 4 1 isopropanol, 4 1 4-chloroacetoacetate, 4 g NAD and 3.6 million U of recombinant oxidoreductase from Pichia capsulata was incubated for 24 h at room temperature under constant mixing. […] Subsequently, the reaction mixture was extracted with ethyl acetate, the solvent was removed by means of a rotary evaporator and the raw product was distilled.
For the preparative batch, a mixture of 164 ml of a buffer (100 mM TEA, pH=7, 1 mM ZnCl2, 20% glycerol), 16 ml isopropanol, 20 g 2-chloro-1-(3-chlorophenyl)ethane-1-one dissolved in 20 ml methyl tert-butyl ether (MTBE), 10 mg NAD and 20,000 U of recombinant oxidoreductase from Pichia capsulata was incubated for 24 h at room temperature under constant mixing. […] Subsequently, the reaction mixture was extracted with ethyl acetate, and the solvent was removed using the rotary evaporator.
As for `O=C(CCl)c1cccc(Cl)c1` [2-Chloro-1-(3-chlorophenyl)ethane-1-one], the “share of the substrate used that was reduced” value is listed as 96%.
As to `CCOC(=O)CC(=O)CCl` [Ethyl-4-chloroacetoacetate], the “share of the substrate used that was reduced” value was 99%.

The same test, now with this note: preparative batch, 24 h at room temperature.
`CCOC(=O)C[C@@H](O)CCl` [ethyl-(R)-4-chloro-3-hydroxybutanoate]: the “enantiomeric excess of the recovered product” value stood at 99%.
With `O[C@@H](CCl)c1cccc(Cl)c1` [(R)-2-chloro-1-(3-chlorophenyl)ethane-1-ol], the “enantiomeric excess of the recovered product” value turned out to be 100%.

A further test has as its system oxidoreductase according to the invention. As to the kind of experiment: Substrate spectrum (relative enzyme activity with different substrates). The test is classed as biochemical, Pichia capsulata. The following applies: activity with ethyl-4-chloroacetoacetate = 100%. As to the method: Incubation lasted for about 2 to 3 min, thereupon 100 μl of a substrate solution (100 mM ethyl-4-chloro-3-oxobutanoate were added.
The substrate spectrum of the oxidoreductase according to the invention was determined by measuring the enzyme activity with a number of ketones, oxoacids and esters thereof. […] The activity with ethyl-4-chloroacetoacetate was equalled to 100% and all the other substrates were set in relation thereto.
On to `CCOC(=O)C(=O)c1ccccc1` [Ethyl phenyl glyoxylate], for which the Relative activity % was found to be 5.2%.
On the same count and under the same terms, then `CCOC(=O)C(=O)CCc1ccccc1` [Ethyl-2-oxo-4-phenylbutanoic acid], with 76%.
With `CCOC(=O)CC(C)=O` [Ethyl acetoacetate], the Relative activity % is reported as 100%.
As to `COC(=O)CC(C)=O` [Methyl acetoacetate], the Relative activity % amounted to 150%.
`O=C(CCl)c1cccc(Cl)c1` [2-Chloro-1-(3-chlorophenyl)ethane-1-one]: the Relative activity % was 21%.
In the case of `CCC(=O)C(=O)O` [2-Oxobutanoic acid], the Relative activity % is 0%.
Regarding `CCOC(=O)C(C)=O` [Ethyl pyruvate], the Relative activity % is 10%.
With `CCCCCCCC(=O)c1ccccc1` [Caprylophenone], the Relative activity % came to 0%.
With `CCOC(=O)CC(=O)CC` [Ethyl-3 oxovaleriate], the Relative activity % stood at 67%.
With `CC(=O)Cc1ccccc1` [1-Phenyl-2-propanone], the Relative activity % is reported as 24%.
Turning to `CCOC(=O)CC(=O)CCl` [Ethyl-4-chloroacetoacetate], the Relative activity % came to 100%.
Take `COC(=O)CCCCC(=O)CC(=O)OC` [Dimethyl-3-oxo-1,8-octandioic acid]: the Relative activity % is recorded as 3.5%.
For the compound `CCCC(=O)C(=O)O` [2-Oxovaleric acid], the Relative activity % is reported as 0%.
In the case of `CCOC(=O)CCCCC(=O)CCCl` [Ethyl-8-chloro-6-oxooctanoic acid], the Relative activity % is recorded as 20%.
Regarding `CCCCCC(=O)CC` [3-Octanone], the Relative activity % amounted to 30%.
As for `CCC(C)=O` [2-Butanone], the Relative activity % is given as 99%.
Consider `CCCCCCC(C)=O` [2-Octanone], for which the Relative activity % was 88%.
Still for that read-out and setting: the same measure for `CC(=O)CCO` [4-Hydroxy-2-butanone]: 99%; for `CCCC(=O)C(=O)OCC` [Ethyl-2-oxovaleriate]: 41%; for `CC(=O)c1ccccc1` [Acetophenone]: 4%.
For `O=C(O)C(=O)Cc1ccccc1` [2-Oxo-3-phenyl propionic acid], the Relative activity % was found to be 0%.
